Legend:
4T1-fluc cells = experiment: cellular uptake of Cy3-labeled siRNA; format: cell-based
Experimental: CD44 expression was confirmed by flow cytometry. The red fluoresecence from Cy3-labeled siRNA was more intense in 4T1-fluc cells that were treated with siRNA/HADPA-Zn-NPs than in the cells that were treated with Lipofectamine 2000 (Lipo2K)/siRNA. […] Furthermore, the uptake of siRNA/HADPA-Zn-NPs into 4T1-fluc cells was 3.7±0.5-fold higher than the uptake into 293T cells.

[1] = system: subcutaneous 4T1-fluc tumors; experiment: in vivo gene silencing in 4T1-fluc xenograft mouse model (in vivo BLI); set-up: species or system Balb/C mice; details: 72 hours after intratumor injection; siLuc 100 pmol and/or NPs 200 ug in 80 uL
Experimental: Four groups of Balb/C mice (n=5 per group) with subcutaneous 4T1-fluc tumors were treated with an intratumor injection of 80 uL of a buffer solution that contained siLuc/HADPA-Zn-NPs (100 pmol/200 ug), HADPA-Zn-NPs (200 ug), naked siLuc (100 pmol), or phosphate-buffered saline (PBS). The silencing of the fluc gene was measured by in vivo BLI. […] In contrast the control groups had increased levels of fluc expression ((30.0±4.1) %, (38.2±3.9)%, and (39.2±5.3)%, for HADPA-Zn-NPs, naked siRNA, and PBS, respectively, FIG. 8). The tumors from each group were harvested and weighed after BLI to determine whether the apparent gene silencing effect was a result of a reduction in the volume of the tumors as a consequence of the toxicity of the formulation. As shown by the […] testing, there was no significant difference in the neoplastic weights of the tumors between the various groups.

Substance	fluorescence observed in treated cells (4T1-fluc cells)	relative level of fluc expression [1]
Zn-dipicolylamine [Zn-DPA]	no fluorescence was observed	
naked siRNA: siRNA that targets the firefly luciferase gene, SEQUENCE ID NO. 1 and 2, without carrier (chain 1 GCACUCUGAUUGACAAAUACGAUUU; chain 2 AAAUCGUAUUUGUCAAUCAGAGUGC; listed as RNA, chemistry not given here)		38.2±3.9%

— patent US20140162966A1, “NANOPARTICLES FOR DELIVERY OF LIGANDS” (The U.S.A, as represented by the Secretary, Department of …, priority 2012, published 2014)
